Measured values taken from ChEMBL document CHEMBL1148564, “Synthesis and interactions of 7-deoxy-, 10-deacetoxy, and 10-deacetoxy-7-deoxypaclitaxel with NCI/ADR-RES cancer cells and bovine brain microvessel endothelial cells” (Bioorg Med Chem Lett, 2006).

Columns and labels:
Tubulin (Homo sapiens) [1] = biological target: T1, Tubulin (Homo sapiens) (UniProt P68371+Q9H4B7+P0DPH7+P68366+Q13509+Q71U36+P04350+Q3ZCM7+P07437+P68363+Q9BQE3+Q6PEY2+Q13885+Q9BVA1+Q9BUF5); assay: Effect on tubulin polymerization by tubulin assembly assay relative to paclitaxel; assay type: protein-complex assay
MCF7 = assay: Antiproliferative activity against MCF7 breast cancer cell line relative to paclitaxel; assay type: functional, Homo sapiens
Tubulin (Homo sapiens) [2] = biological target: T1, Tubulin (Homo sapiens); assay: Antiproliferative activity against NCI/ADR-RES […] cancer cell line relative to paclitaxel; assay type: functional, cell-based

Row | Structure (SMILES) | Ratio ED50 (Tubulin (Homo sapiens) [1]) | Ratio ED50 (MCF7) | Ratio ED50 (Tubulin (Homo sapiens) [2])
1 | CC(=O)O[C@H]1C(=O)[C@]2(C)CC[C@H]3OC[C@@]3(OC(C)=O)[C@H]2[C@H](OC(=O)c2ccccc2)[C@]2(O)C[C@H](OC(=O)[C@H](O)[C@@H](NC(=O)c3ccccc3)c3ccccc3)C(C)=C1C2(C)C | 1.4 | 30 | 1
2 | CC(=O)O[C@@]12CO[C@@H]1CC[C@@]1(C)C(=O)CC3=C(C)[C@@H](OC(=O)[C@H](O)[C@@H](NC(=O)c4ccccc4)c4ccccc4)C[C@@](O)([C@@H](OC(=O)c4ccccc4)[C@H]21)C3(C)C | 2 | 9 | 0.21
3 | CC(=O)O[C@@]12CO[C@@H]1C[C@H](O)[C@@]1(C)C(=O)CC3=C(C)[C@@H](OC(=O)[C@H](O)[C@@H](NC(=O)c4ccccc4)c4ccccc4)C[C@@](O)([C@@H](OC(=O)c4ccccc4)[C@H]21)C3(C)C | 2.2 | 0.87 | 0.79
